Assay results as given in patent US8921307B2, “Synthetic linear apelin mimetics for the treatment of heart failure” (priority 2012, dated 2014).
Where two headings read alike, the source gives them in different places. Where a SMILES comes first, the peptide text is derived from it. [ ]: non-standard residue; d: D form. The star is where a group is joined. Phe(3,4-Cl2) = N[C@@H](Cc1ccc(Cl)c(Cl)c1)C(=O)O; Cha = N[C@@H](CC1CCCCC1)C(=O)O; pGlu = O=C1CC[C@@H](C(=O)O)N1; dNle = CCCC[C@@H](N)C(=O)O; dNva = CCC[C@@H](N)C(=O)O; Nle = CCCC[C@H](N)C(=O)O; Bn = c1ccc(C*)cc1; tBu = CC(C)(C)*

Experiments:
[1] = Surrogate Activity-Based Plasma Stability Assay; assay type: in vitro ADME; conditions: rat
Procedure: Stability half-life was then calculated by the formula, t½=0.693÷k Surrogate Activity-Based Plasma Stability Assay: […]
2) Calculate slope of value above and […]

hAPJ = biological target: T1, hAPJ (Homo sapiens, UniProt P35414); experiment: hAPJ Calcium Flux Assay; assay type: cell-based
T1 sequence (P35414 1-380): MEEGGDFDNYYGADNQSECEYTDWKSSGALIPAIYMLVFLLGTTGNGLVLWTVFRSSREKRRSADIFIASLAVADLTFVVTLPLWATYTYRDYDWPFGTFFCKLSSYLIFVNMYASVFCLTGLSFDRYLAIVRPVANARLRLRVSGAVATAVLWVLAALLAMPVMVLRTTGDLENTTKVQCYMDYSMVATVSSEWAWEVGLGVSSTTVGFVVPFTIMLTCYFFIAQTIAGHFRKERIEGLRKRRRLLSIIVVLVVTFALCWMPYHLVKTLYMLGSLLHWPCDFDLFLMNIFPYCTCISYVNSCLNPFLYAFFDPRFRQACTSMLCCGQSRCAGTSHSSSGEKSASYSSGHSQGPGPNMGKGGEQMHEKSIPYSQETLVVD
Procedure, shortened: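 Chem-5 cells stably expressing APJ, loaded 1 h with Calcium 4 dye plus 2.5 mM probenecid at 37 °C. Peptides added at final […] in HBSS/HEPES/0.1% BSA, in triplicate.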

[2] = Plasma Stability Assay (LC-MS); assay type: in vitro ADME; conditions: male, Sprague-Dawley, rat
Procedure: Plasma Stability Assay: Materials: Working solution: 1 mg/mL test article is prepared in Milli-Q water Extraction solution: Methanol:Acetonitrile:Water (1:1:1) with 0.1% Formic Acid and 400 ng/mL Glyburide. Plasma: Male Sprague-Dawley rat plasma (with sodium heparin), purchased from Bioreclamation LLC (Liverpool, N.Y.). Test article was prepared in one of the following biological matrices: heparinized rat plasma, heparinized rat whole blood or lung homogenate. […] Lung homogenate samples were prepared by diluting lung homogenate to 1 mg/ml protein concentration with phosphate buffered saline (PBS), followed by addition of 5 uL Working solution to 995 uL diluted lung homogenate. The samples were incubated at 37° C. with gentle shaking (65˜75 rpm) in a water bath incubator. […] Afterwards, a pipetting device (Tecan Temo) was used to tranfer the supernatants to another plate and add 50 uL of water to all samples. The plate was vortexed prior to LC-MS analysis. LC-MS Analysis of stability samples HPLC: Agilent 1290 HPLC with autosampler Column: MAC-MOD ACE C18, 3 μm, 30 mm×2.1 mm i.d. Mobile phase A: 0.1% Formic acid in acetonitrile Mobile phase B: 0.1% Formic acid in water Gradient Program: [table]

[3] = Surrogate Activity based Plasma stability t½
[4] = Surrogate activity-based Plasma stability t½
[5] = Chem-5 APJ stable cells, FLIPR calcium flux stimulation, read-out: hAPJ Ca^2+ Flux EC50

| Compound | half-life [1, 3] [h] | half-life [1, 4] [h] | EC50 (hAPJ; [5]) [nM] | half-life at 5000 ng/mL [2] [h] | half-life ([1]; read-out: Surrogate activity-based Plasma stability t½) [h] | EC50 (hAPJ) [nM] |
| --- | --- | --- | --- | --- | --- | --- |
| CCCC[C@@H](NC(=O)[C@@H]1CCCN1C(=O)CNC(=O)[C@H](CCCCN)NC(=O)[C@@H](Cc1c[nH]cn1)NC(=O)[C@@H](C)NC(=O)[C@H](CC(C)C)NC(=O)[C@H](CCCNC(=N)N)NC(=O)[C@@H]1CCCN1C(=O)[C@H](CCCNC(=N)N)NC(=O)[C@@H]1CCC(=O)N1)C(=O)N[C@H](C)C(=O)N[C@H](Cc1ccccc1)C(=O)O [Example 16, pE-R-P-R-L-a-h-K-G-P-nle-a-f-OH] | 6.82 | 6.82 | 8.8 | 7.47 |  |  |
| CCCC[C@@H](NC(=O)[C@@H]1CCCN1C(=O)CNC(=O)[C@H](CCCCN)NC(=O)[C@H](Cc1ccccc1)NC(=O)[C@@H](C)NC(=O)[C@H](CC(C)C)NC(=O)[C@H](CCCNC(=N)N)NC(=O)[C@@H]1CCCN1C(=O)[C@H](CCCNC(=N)N)NC(=O)[C@@H]1CCC(=O)N1)C(=O)N[C@H](C)C(=O)N[C@H](Cc1ccccc1)C(=O)O [Example 17, pE-R-P-R-L-a-F-K-G-P-nle-a-f-OH] ([pGlu]RPRL[dA]FKGP[dNle][dA][dF]-OH) | > 16.7 | > 16.7 | 3.1 | 6.08 |  |  |
| CCCC[C@@H](NC(=O)[C@@H]1CCCN1C(=O)CNC(=O)[C@H](CCCCN)NC(=O)[C@H](Cc1c[nH]cn1)NC(=O)[C@@H](C)NC(=O)[C@H](CC(C)C)NC(=O)[C@H](CCCNC(=N)N)NC(=O)[C@@H]1CCCN1C(=O)[C@H](CCCNC(=N)N)NC(=O)[C@@H]1CCC(=O)N1)C(=O)N[C@H](C)C(=O)N[C@H](Cc1ccccc1)C(=O)O [Example 29, pE-R-P-R-L-a-H-K-G-P-nle-a-f-OH] | 9.42 | 9.42 |  | 2.6 |  |  |
| CCCC[C@@H](NC(=O)[C@@H]1CCCN1C(=O)CNC(=O)[C@H](CCCCN)NC(=O)[C@H](Cc1c[nH]cn1)NC(=O)[C@@H](CC(C)C)NC(=O)[C@H](CC(C)C)NC(=O)[C@H](CCCNC(=N)N)NC(=O)[C@@H]1CCCN1C(=O)[C@H](CCCNC(=N)N)NC(=O)[C@@H]1CCC(=O)N1)C(=O)N[C@H](C)C(=O)N[C@H](Cc1ccccc1)C(=O)O [Example 10, pE-R-P-R-L-(D-Leu)-H-K-G-P-nle-a-f-OH] ([pGlu]RPRL[dL]HKGP[dNle][dA][dF]-OH) |  | > 16.7 | 155 |  |  |  |
| CCCC[C@@H](NC(=O)[C@@H]1CCCN1C(=O)CNC(=O)[C@H](CCCCN)NC(=O)[C@H](Cc1c[nH]cn1)NC(=O)[C@@H](C)NC(=O)[C@H](Cc1ccc(Cl)c(Cl)c1)NC(=O)[C@H](CCCNC(=N)N)NC(=O)[C@@H]1CCCN1C(=O)[C@H](CCCNC(=N)N)NC(=O)[C@@H]1CCC(=O)N1)C(=O)N[C@H](C)C(=O)N[C@H](Cc1ccccc1)C(=O)O [Example 24, pE-R-P-R-(3,4-Cl2-F)-a-H-K-G-P-nle-a-f-OH] ([pGlu]RPR[Phe(3,4-Cl2)][dA]HKGP[dNle][dA][dF]-OH) |  | 0.958 | 13.8 |  |  |  |
| CCCC[C@@H](NC(=O)[C@@H]1CCCN1C(=O)CNC(=O)[C@H](CCCCN)NC(=O)[C@H](Cc1c[nH]cn1)NC(=O)[C@@H](CSC(C)(C)C)NC(=O)[C@H](CC(C)C)NC(=O)[C@H](CCCNC(=N)N)NC(=O)[C@@H]1CCCN1C(=O)[C@H](CCCNC(=N)N)NC(=O)[C@@H]1CCC(=O)N1)C(=O)N[C@H](C)C(=O)N[C@H](Cc1ccccc1)C(=O)O [Example 7, pE-R-P-R-L-c(tBu)-H-K-G-P-nle-a-f-OH] ([pGlu]RPRL[dC](tBu)HKGP[dNle][dA][dF]-OH) |  | > 16.7 | 693 |  |  |  |
| CCCC[C@@H](NC(=O)[C@@H]1CCCN1C(=O)CNC(=O)[C@H](CCCCN)NC(=O)[C@H](Cc1c[nH]cn1)NC(=O)[C@@H](CC(=O)O)NC(=O)[C@H](CC(C)C)NC(=O)[C@H](CCCNC(=N)N)NC(=O)[C@@H]1CCCN1C(=O)[C@H](CCCNC(=N)N)NC(=O)[C@@H]1CCC(=O)N1)C(=O)N[C@H](C)C(=O)N[C@H](Cc1ccccc1)C(=O)O [Example 8, pE-R-P-R-L-d-H-K-G-P-nle-a-f-OH] ([pGlu]RPRL[dD]HKGP[dNle][dA][dF]-OH) |  | > 16.7 | 7.7 |  |  |  |
| CCCC[C@@H](NC(=O)[C@@H]1CCCN1C(=O)CNC(=O)[C@H](CCCCN)NC(=O)[C@H](Cc1c[nH]cn1)NC(=O)[C@@H](C)NC(=O)[C@H](Cc1ccc(OCc2ccccc2)cc1)NC(=O)[C@H](CCCNC(=N)N)NC(=O)[C@@H]1CCCN1C(=O)[C@H](CCCNC(=N)N)NC(=O)[C@@H]1CCC(=O)N1)C(=O)N[C@H](C)C(=O)N[C@H](Cc1ccccc1)C(=O)O [Example 27, pE-R-P-R-Y(Bzl)-a-H-K-G-P-nle-a-f-OH] ([pGlu]RPRY(Bn)[dA]HKGP[dNle][dA][dF]-OH) |  |  |  |  | 5.81 | 121 |
| CCCC[C@@H](NC(=O)[C@@H]1CCCN1C(=O)CNC(=O)[C@H](CCCCN)NC(=O)[C@@H](Cc1c[nH]cn1)NC(=O)[C@H](C)NC(=O)[C@H](CC(C)C)NC(=O)[C@H](CCCNC(=N)N)NC(=O)[C@@H]1CCCN1C(=O)[C@H](CCCNC(=N)N)NC(=O)[C@@H]1CCC(=O)N1)C(=O)N[C@H](C)C(=O)N[C@H](Cc1ccccc1)C(=O)O [Example 58, pE-R-P-R-L-A-h-K-G-P-nle-a-f-OH] |  | 3.8 | 55.1 |  |  |  |
| CCCC[C@H](NC(=O)[C@@H]1CCCN1C(=O)CNC(=O)[C@H](CCCCN)NC(=O)[C@H](Cc1c[nH]cn1)NC(=O)[C@@H](C)NC(=O)[C@H](CC(C)C)NC(=O)[C@H](CCCNC(=N)N)NC(=O)[C@@H]1CCCN1C(=O)[C@H](CCCNC(=N)N)NC(=O)[C@@H]1CCC(=O)N1)C(=O)N1CCC[C@H]1C(=O)N[C@H](Cc1ccccc1)C(=O)O [Example 34, pE-R-P-R-L-a-H-K-G-P-Nle-P-f-OH] ([pGlu]RPRL[dA]HKGP[Nle]P[dF]-OH) |  | 0.387 | 34.5 |  |  |  |
| CCCC[C@@H](NC(=O)[C@@H]1CCCN1C(=O)CNC(=O)[C@H](CCCCN)NC(=O)[C@H](Cc1c[nH]cn1)NC(=O)[C@@H](C)NC(=O)[C@H](CC(C)C)NC(=O)[C@H](CCCNC(=N)N)NC(=O)[C@@H]1CCCN1C(=O)[C@H](CCCNC(=N)N)NC(=O)[C@@H]1CCC(=O)N1)C(=O)N1CCC[C@@H]1C(=O)N[C@H](Cc1ccccc1)C(=O)O [Example 13, pE-R-P-R-L-a-H-K-G-P-nle-p-f-OH] ([pGlu]RPRL[dA]HKGP[dNle][dP][dF]-OH) |  | > 16.7 | 1.1 |  |  |  |
| CCCC[C@@H](NC(=O)[C@@H]1CCCN1C(=O)CNC(=O)[C@H](CCC(N)=O)NC(=O)[C@H](Cc1c[nH]cn1)NC(=O)[C@@H](C)NC(=O)[C@H](CC(C)C)NC(=O)[C@H](CCCNC(=N)N)NC(=O)[C@@H]1CCCN1C(=O)[C@H](CCCNC(=N)N)NC(=O)[C@@H]1CCC(=O)N1)C(=O)N[C@H](C)C(=O)N[C@H](Cc1ccccc1)C(=O)O [Example 59, pE-R-P-R-L-a-H-Q-G-P-nle-a-f-OH] ([pGlu]RPRL[dA]HQGP[dNle][dA][dF]-OH) |  | 14.2 | 7.4 |  |  |  |
| CCCC[C@@H](NC(=O)[C@@H]1CCCN1C(=O)CNC(=O)[C@H](CCCCN)NC(=O)[C@H](Cc1c[nH]cn1)NC(=O)[C@@H](C)NC(=O)[C@H](CC(C)C)NC(=O)[C@H](CCCNC(=N)N)NC(=O)[C@@H]1CCCN1C(=O)[C@H](CCCNC(=N)N)NC(=O)[C@@H]1CCC(=O)N1)C(=O)N1CCC(Oc2ccccc2)CC1 [Example 43, pE-R-P-R-L-a-H-K-G-P-nle-(4-Phenoxypiperidin-1-yl)] |  | 2.97 | 2 |  |  |  |
| CCCC[C@@H](NC(=O)[C@@H]1CCCN1C(=O)CNC(=O)[C@H](CCCCN)NC(=O)[C@H](Cc1c[nH]cn1)NC(=O)[C@@H](CCC)NC(=O)[C@H](CC1CCCCC1)NC(=O)[C@H](CCCNC(=N)N)NC(=O)[C@@H]1CCCN1C(=O)[C@H](CCCNC(=N)N)NC(=O)[C@@H]1CCC(=O)N1)C(=O)N[C@H](C)C(=O)N[C@H](Cc1ccccc1)C(=O)O [Example 63, pE-R-P-R-Cha-nva-H-K-G-P-nle-a-f-OH] ([pGlu]RPR[Cha][dNva]HKGP[dNle][dA][dF]-OH) |  | 3.75 | 9.4 |  |  |  |
| CCC[C@@H](NC(=O)[C@@H]1CCCN1C(=O)CNC(=O)[C@H](CCCCN)NC(=O)[C@H](Cc1c[nH]cn1)NC(=O)[C@@H](C)NC(=O)[C@H](CC(C)C)NC(=O)[C@H](CCCNC(=N)N)NC(=O)[C@@H]1CCCN1C(=O)[C@H](CCCNC(=N)N)NC(=O)[C@@H]1CCC(=O)N1)C(=O)N[C@H](C)C(=O)N[C@H](Cc1ccccc1)C(=O)O [Example 53, pE-R-P-R-L-a-H-K-G-P-nva-a-f-OH] ([pGlu]RPRL[dA]HKGP[dNva][dA][dF]-OH) |  | > 16.7 | 8.7 |  |  |  |
